Measured values reported in patent publication US20240109890A1, “BRIDGED HETEROCYCLYL-SUBSTITUTED PYRIMIDINE COMPOUNDS, PREPARATION METHOD AND MEDICAL USE THEREOF” (THE NATIONAL INSTITUTES OF PHARMACEUTICAL R&D CO., LTD., priority 2021, published 2024).

Key:
JAK1 kinase = JAK1 kinase (Homo sapiens (Human), UniProt P23458); assay: In vitro inhibitory activity on JAK1 kinase (ADP-Glo Kinase Assay); format: biochemical; conditions: JAK1 4 nM, 1 mM ATP, IRS1 substrate
Experimental: Experimental materials: JAK1 kinase (Invitrogen, PV4744), ATP (Promega, V915B), ADP-Glo Kinase Assay (Promega, V9101), IRS1 (Signalchem, 140-58-1000). Sample preparation: The compounds of the present invention and the control product were dissolved in DMSO solvent respectively to formulate into 10 mM mother liquor. The final reaction maximum concentration of the compound was 10 μM, 3-fold dilution, 10 concentration gradients, and duplicate wells for each concentration gradient. Experimental process: 0.1 μL of the compound to be tested was transferred into a 384-well reaction plate (PE, 6007290) via Echo and centrifuged at 1000 rpm/min for 1 min. 5 μL of JAK1 kinase (final concentration of 4 nM) was transferred into the 384-well reaction plate, which was then centrifuged at 1000 rpm/min for 1 min, and incubated at 25° C. for 15 min. 5 μL of substrate mixture (1 mM ATP, IRS1 0.05 mg/ml, kinase buffer solution) was transferred into the 384-well reaction plate, which was then centrifuged at 1000 rpm/min for 1 min, and incubated at 25° C. for 60 min. 10 μL of ADP-Glo was transferred into the 384-well reaction plate, which was then centrifuged at 1000 rpm/min for 1 min, and incubated at 25° C. for 40 min. 20 μL of test solution was transferred into the 384-well reaction plate, which was then centrifuged at 1000 rpm/min for 1 min and incubated at 25° C. for 40 min. RLU (Relative luminescence unit) signal was read by using an Envision multifunctional plate reader. The signal intensity was used to characterize the degree of the kinase activity. […] IC50 value of 0-100 nM is shown as A, IC50 value of 100-300 nM is shown as B, IC50 value of 300-1000 nM is shown as C, and IC50 value which is greater than 1000 nM is shown as D. NT means not tested.

[1] = Pharmacokinetic study in rats; format: in vivo, rat; conditions: for F / AUC(0-t) / Cmax / half-life: male SD rats, i.v. 1 mg/kg, p.o. 5 mg/kg; for AUC(0-t) / Cmax / half-life: rat, plasma, route of this value not stated; for pharmacokinetic properties (overall statement): rats
Experimental: Sample preparation: The compounds of Examples 1-a and 1-b were formulated into 0.2 mg/mL and 0.5 mg/mL solutions with 20% cyclodextrin.
Experimental method: Male SD rats (Beijing Vital River Laboratory Animal Technology Co., Ltd.) were used, the intravenous dose was 1 mg/kg (intravenously, i.v). Blood was collected from the canthus venous plexus before administration and at 0, 5 minutes, 15 minutes, 30 minutes, 1 hour, 2 hours, 4 hours, 6 hours and 8 hours after administration. The oral dose was 5 mg/kg (oral, p.o). Blood was collected from the canthus venous plexus before administration and at 15 minutes, 30 minutes, 1 hour, 2 hours, 4 hours, 6 hours and 8 hours after administration. The blood was anticoagulated with sodium heparin, centrifuged at 3500 rpm for 10 minutes at 4° C. The plasma was obtained and stored at −20° C. until testing.
50 μL of the plasma sample melted at room temperature was precisely measured and placed in a 1.5 mL EP tube, followed by adding 400 μL of verapamil internal standard working solution (China National Institute for Drug Control). The EP tube was vortexed vigorously for 1 minute, and centrifuged at 16000 rpm for 10 minutes. The supernatant was collected, filtered with a 0.22 μm organic membrane (AS081320-T, Agela Technologies), and added to an injection vial. The plasma concentration was obtained by LC/MS (Waters UPLC I Class/ TQ-S micro). The main pharmacokinetic parameters of compounds 1-a and 1-b in rats were obtained by DAS3.3.0 software.

AIA model = assay: AIA pharmacodynamic study in rats (complete Freund's adjuvant, arthritis scoring); format: in vivo, rat; conditions: female Lewis rats, arthritis score; for efficacy in the AIA model versus reference PF-06700841: low dose 1 mg/kg and high dose 3 mg/kg groups
Experimental: Experimental materials: Complete Freund's adjuvant (Chondrex, 7027); positive control compound PF-06700841, which has a structure of
Experimental process: The in vivo efficacy of the compounds of the present invention was investigated. 8-Week-old female Lewis rats (Beijing Vital River Laboratory Animal Technology Co., Ltd.) were subcutaneously injected with 0.1 mL of complete Freund's adjuvant at a single site on the base of their tails, and grouped 13 days after modeling. 8 groups were divided: the normal group, the model group, the PF-06700841 low dose group, the PF-06700841 high dose group, the compound 1-a low dose group, the compound 1-a high dose group, the compound 1-b low dose group, and the compound 1-b high dose group (the compounds to be tested were formulated into 0.1 mg/mL and 0.3 mg/mL solutions with 20% cyclodextrin solution). 20% cyclodextrin was administered to the model group, 1 mg/kg of the test compound was administered to the low dose group, and 3 mg/kg of the test compound was administered to the high dose group. The scores were evaluated every 2 days after administration. Scoring criteria: 0 point: no redness and swelling; 1 point: mild redness and swelling of ankle joints and wrist joints; 2 points: moderate redness and swelling of ankle joints and wrist joints; 3 points: severe redness and swelling of the paw including the fingertips; 4 points: maximal inflammation of the extremities, including multiple joints. The scoring results were analyzed by Graph prism9.0 software.
FIG. 1 is a graph showing the rat AIA pharmacodynamic scoring results of the compounds of the present invention.

[2] = test system: IFN-2α-stimulated TYK2/JAK1-mediated pathway; assay: Inhibition of STAT3 signaling pathway of human whole blood (IFN-2α induced pSTAT3, flow cytometry); format: cell-based; conditions: IFN-2α stimulation, CD3/pSTAT3 staining
Experimental: Sample preparation: The compounds of the present invention and the control were dissolved in DMSO solvent respectively to formulate into 10 mM mother liquor. The final reaction maximum concentration of the compound was 10 μM, 3-fold dilution, 10 concentration gradients, and duplicate wells for each concentration gradient.
Experimental process: 20 μL of the compound of the present invention was added to a flow cytometer tube (BD, 352052) containing 180 μL of anticoagulant sodium heparin. 20 μL of PBS was added to the control tube. The sample was incubated at 37° C. for 30 min. 2 μL of stimulating factor was added and then incubated at 37° C. for 20 min. 1 mL of erythrocyte lysate was added, and the sample was repeatedly inverted 5 to 10 times or vortexed and then incubated at 37° C. for 10 min. The sample was centrifuged at 600 g for 6 to 8 min. The supernatant was discarded. The mixture was vortexed until the precipitate was suspended. The cells were washed with 3 mL of PBS and centrifuged at 600 g for 6 to 8 min. The supernatant was discarded. The mixture was vortexed until the precipitate was suspended. 1 mL of membrane breaking solution was added, and the system was mixed gently, incubated on ice for 30 min, and centrifuged at 600 g for 6 to 8 min. The supernatant was discarded. The mixture was vortexed until the precipitate was suspended. The cells were washed. 3 mL of PBS was added. […]

JAK1 kinase, sequence (P23458 whole entry): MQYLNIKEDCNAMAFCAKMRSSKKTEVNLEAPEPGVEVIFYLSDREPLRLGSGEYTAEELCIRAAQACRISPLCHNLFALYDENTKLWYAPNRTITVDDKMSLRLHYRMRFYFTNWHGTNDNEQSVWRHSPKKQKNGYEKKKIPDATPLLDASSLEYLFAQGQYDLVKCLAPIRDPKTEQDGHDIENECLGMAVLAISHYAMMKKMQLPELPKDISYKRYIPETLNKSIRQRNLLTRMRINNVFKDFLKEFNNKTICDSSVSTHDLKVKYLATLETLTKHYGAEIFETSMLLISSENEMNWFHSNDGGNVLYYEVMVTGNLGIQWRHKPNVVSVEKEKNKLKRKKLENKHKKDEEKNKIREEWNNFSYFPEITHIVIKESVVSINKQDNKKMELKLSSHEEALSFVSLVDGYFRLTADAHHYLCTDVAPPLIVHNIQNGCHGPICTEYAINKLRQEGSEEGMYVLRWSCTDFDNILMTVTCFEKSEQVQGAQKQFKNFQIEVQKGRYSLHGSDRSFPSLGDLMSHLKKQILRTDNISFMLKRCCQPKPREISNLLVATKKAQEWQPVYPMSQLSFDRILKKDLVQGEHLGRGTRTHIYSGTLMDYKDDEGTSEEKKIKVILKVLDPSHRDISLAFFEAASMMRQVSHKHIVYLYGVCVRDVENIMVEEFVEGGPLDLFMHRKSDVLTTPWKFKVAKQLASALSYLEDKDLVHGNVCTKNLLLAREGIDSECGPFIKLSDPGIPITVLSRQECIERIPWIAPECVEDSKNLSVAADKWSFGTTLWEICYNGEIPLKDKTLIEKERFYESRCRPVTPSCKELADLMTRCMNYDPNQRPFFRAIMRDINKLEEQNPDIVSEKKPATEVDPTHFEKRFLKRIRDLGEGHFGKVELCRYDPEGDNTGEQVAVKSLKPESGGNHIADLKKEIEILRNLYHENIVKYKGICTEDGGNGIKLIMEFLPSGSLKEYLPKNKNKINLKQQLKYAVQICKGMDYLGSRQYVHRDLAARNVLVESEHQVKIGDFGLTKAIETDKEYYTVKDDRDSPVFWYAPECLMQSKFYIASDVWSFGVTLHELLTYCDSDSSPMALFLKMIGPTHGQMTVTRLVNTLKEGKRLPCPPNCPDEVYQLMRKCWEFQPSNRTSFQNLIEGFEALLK

Row | Structure (SMILES) | IC50 (JAK1 kinase) [nM] | F [1] | AUC(0-t) [1] [ng·h/mL] | Cmax [1] [ng/mL] | half-life [1] [h] | pharmacokinetic properties (overall statement) [1] | efficacy in the AIA model versus isomer 1-b (AIA model; 1 mg/kg and 3 mg/kg) | efficacy in the AIA model versus reference PF-06700841 (AIA model) | IC50 [2] [nM]
1 | Cn1cc(Nc2nccc(C3=CC4CCC(C3)N4C(=O)[C@@H]3C[C@H]3F)n2)cn1 (stereo partly drawn) [Compound 1, ((1S,2R)-2-fluorocyclopropyl)(3-(2-((1-methyl-1H-pyrazol-4-yl)amino)pyrimidin-4-yl)-8-azabicyclo[3.2.1]oct-2-en-8-yl)methanone] | < 100 | – | – | – | – | – | – | – | –
2 | Cn1cc(Nc2nccc(C3=C[C@@H]4CC[C@H](C3)N4C(=O)[C@@H]3C[C@H]3F)n2)cn1 [Compound 1-a, ((1S,2R)-2-fluorocyclopropyl)((1S,5R)-3-(2-((1-methyl-1H-pyrazol-4-yl)amino)pyrimidin-4-yl)-8-azabicyclo[3.2.1]oct-2en-8-yl)methanone] | < 100 | A (F>50% is shown as A) | > 1000 | > 500 | > 1 | good pharmacokinetic properties | significantly better than that of isomer 1-b | significantly better than that of the reference PF-06700841 | < 100
3 | Cn1cc(Nc2nccc(C3=C[C@H]4CC[C@@H](C3)N4C(=O)[C@@H]3C[C@H]3F)n2)cn1 [Compound 1-b, ((1S,2R)-2-fluorocyclopropyl)((1R,5S)-3-(2-((1-methyl-1H-pyrazol-4-yl)amino)pyrimidin-4-yl)-8-azabicyclo[3.2.1]oct-2-en-8-yl)methanone] | < 100 | A (F>50% is shown as A) | 500 to 1000 | 300 to 500 | > 1 | good pharmacokinetic properties | – | significantly better than that of the reference PF-06700841 | < 100
4 | Cn1cc(Nc2nccc(C3=CC4CCC(C3)N4C(=O)[C@H]3C[C@@H]3F)n2)cn1 (stereo partly drawn) [Compound 2, ((1R,2S)-2-fluorocyclopropyl)(3-(2-((1-methyl-1H-pyrazol-4-yl)amino)pyrimidin-4-yl)-8-azabicyclo[3.2.1]oct-2-en-8-yl)methanone] | 300 to 1000 | – | – | – | – | – | – | – | –
5 | Cn1cc(Nc2nccc(C3=C[C@@H]4CC[C@H](C3)N4C(=O)[C@H]3C[C@@H]3F)n2)cn1 [Compound 2-a, ((1R,2S)-2-fluorocyclopropyl)((1S,5R)-3-(2-((1-methyl-1H-pyrazol-4-yl)amino)pyrimidin-4-yl)-8-azabicyclo[3.2.1]oct-2-en-8-yl)methanone] | 300 to 1000 | – | – | – | – | – | – | – | –
6 | Cn1cc(Nc2nccc(C3=C[C@H]4CC[C@@H](C3)N4C(=O)[C@H]3C[C@@H]3F)n2)cn1 [Compound 2-b, ((1R,2S)-2-fluorocyclopropyl)((1R,5S)-3-(2-((1-methyl-1H-pyrazol-4-yl)amino)pyrimidin-4-yl)-8-azabicyclo[3.2.1]oct-2-en-8-yl)methanone] | 100 to 300 | – | – | – | – | – | – | – | –
